Patent publication US9833497B2, “Human originated EGF domain proteins and use of the same” (CHENGDU SOURCEBIO LIMITED-LIABILITY COMPANY, priority 2013, dated 2017)

Assays:
Format in all cases: cell-based
Proteus mirabilis = test: MIC against Gram-negative bacteria: Proteus mirabilis; conditions: 5×10^5 CFU/mL
Outline: (§1)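 Inocula prepared by growing LB cultures at 37° C to 0.5 McFarland, centrifuging at 4000×g, and resuspending in fresh medium. Final density 5×10^5 CFU/mL per well with two-fold dilutions of purified EGF domain protein; shaking incubation at 37° C.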

E. coli DH5α = test: Antibacterial activity: MIC and growth curve against E. coli DH5α in 96-well plate; conditions: minimal inhibitory concentration against E. coli DH5α; 96-well plate, 5×10^5 CFU/mL, 37° C., judged after 8 h
Outline: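 Log-phase bacteria (OD600 ~0.5) resuspended in LB at 5×10^5 CFU/mL, exposed to recombinant protein at 50, 25, 12.5 μg/mL final in triplicate, 37 °C shaking at 175 rpm. OD600 read every 30 min; MIC is lowest concentration showing no growth.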

Enterobacter cloacae = test: MIC against Gram-negative bacteria: Enterobacter cloacae; conditions: 5×10^5 CFU/mL
Outline: as §1

Klebsiella pneumonia = test: MIC against Gram-negative bacteria: Klebsiella pneumonia; conditions: 5×10^5 CFU/mL
Outline: as §1

Proteus vulgaris = test: MIC against Gram-negative bacteria: Proteus vulgaris; conditions: 5×10^5 CFU/mL
Outline: as §1

Citrobacter diversus = test: MIC against Gram-negative bacteria: Citrobacter diversus; conditions: 5×10^5 CFU/mL
Outline: as §1

E. coli BL21 = test: MIC against Gram-negative bacteria: E. coli BL21; conditions: 5×10^5 CFU/mL
Outline: as §1

Serratia marcescens = test: MIC against Gram-negative bacteria: Serratia marcescens; conditions: 5×10^5 CFU/mL
Outline: as §1

Pseudomonas aeruginosa = test: MIC against Gram-negative bacteria: Pseudomonas aeruginosa; conditions: 5×10^5 CFU/mL
Outline: as §1

Aeromonas hydrophila = test: MIC against Gram-negative bacteria: Aeromonas hydrophila; conditions: 5×10^5 CFU/mL
Outline: as §1

Moraxella catarrhalis = test: MIC against Gram-negative bacteria: Moraxella catarrhalis; conditions: 5×10^5 CFU/mL
Outline: as §1

[1] = E. coli BL21, 10 h cultivation at 37° C.
[2] = 10 h cultivation at 37° C., two-fold serial dilution

| Substance | MIC (μg/mL) P. mirabilis (Proteus mirabilis; 10 h cultivation at 37° C.) [µg/mL] | MIC (E. coli DH5α) [µg/mL] | MIC (μg/mL) E. cloacae (Enterobacter cloacae; 10 h cultivation at 37° C.) [µg/mL] | MIC (μg/mL) K. pneumonia (Klebsiella pneumonia; 10 h cultivation at 37° C.) [µg/mL] | MIC (μg/mL) P. vulgaris (Proteus vulgaris; 10 h cultivation at 37° C.) [µg/mL] | MIC (μg/mL) C. diversus (Citrobacter diversus; 10 h cultivation at 37° C.) [µg/mL] | MIC (μg/mL) E. coli BL21 (E. coli BL21; [1]) [µg/mL] | MIC (μg/mL) S. marcescens (Serratia marcescens; 10 h cultivation at 37° C.) [µg/mL] | MIC (μg/mL) P. aeruginosa (Pseudomonas aeruginosa; 10 h cultivation at 37° C.) [µg/mL] | MIC (μg/mL) A. hydrophila (Aeromonas hydrophila; 10 h cultivation at 37° C.) [µg/mL] | MIC (μg/mL) M. catarrhalis (Moraxella catarrhalis; 10 h cultivation at 37° C.) [µg/mL] | MIC P. mirabilis (Proteus mirabilis; [2]) [µg/mL] | MIC E. cloacae (Enterobacter cloacae; [2]) [µg/mL] | MIC K. pneumonia (Klebsiella pneumonia; [2]) [µg/mL] | MIC P. vulgaris (Proteus vulgaris; [2]) [µg/mL] | MIC C. diversus (Citrobacter diversus; [2]) [µg/mL] | MIC E. coli BL21 (E. coli BL21; [2]) [µg/mL] | MIC S. marcescens (Serratia marcescens; [2]) [µg/mL] | MIC P. aeruginosa (Pseudomonas aeruginosa; [2]) [µg/mL] | MIC A. hydrophila (Aeromonas hydrophila; [2]) [µg/mL] | further results |
| --- | --- | --- | --- | --- | --- | --- | --- | --- | --- | --- | --- | --- | --- | --- | --- | --- | --- | --- | --- | --- | --- |
| PRT786 (YGKDCALICQCQNGADCDHISGQCTCRTGFMGRHCE; listed as Homo sapiens) | 25 | 50 | 12.5 | 50 | 12.5 | 25 | 25 | 12.5 | 12.5 | 12.5 | 12.5 | – | – | – | – | – | – | – | – | – | – |
| PRT1401 (VCHPRCIEHGTCKDGKCECREGWNGEHCT; listed as Homo sapiens) | – | 12.5 | – | – | – | – | – | – | – | – | – | – | – | – | – | – | – | – | – | – | MIC against P. mirabilis (Proteus mirabilis; Proteus mirabilis, 10 h cultivation at 37° C.): 12.5 µg/mL; MIC against E. cloacae (Enterobacter cloacae; Enterobacter cloacae, 10 h cultivation at 37° C.): 12.5 µg/mL; MIC against K. pneumonia (Klebsiella pneumonia; Klebsiella pneumonia, 10 h cultivation at 37° C.): 25 µg/mL; MIC against P. vulgaris (Proteus vulgaris; Proteus vulgaris, 10 h cultivation at 37° C.): 25 µg/mL; MIC against C. diversus (Citrobacter diversus; Citrobacter diversus, 10 h cultivation at 37° C.): 12.5 µg/mL; MIC against E. coli BL21 (E. coli BL21; [1]): 25 µg/mL; MIC against S. marcescens (Serratia marcescens; Serratia marcescens, 10 h cultivation at 37° C.): 12.5 µg/mL; MIC against P. aeruginosa (Pseudomonas aeruginosa; Pseudomonas aeruginosa, 10 h cultivation at 37° C.): 12.5 µg/mL; MIC against A. hydrophila (Aeromonas hydrophila; Aeromonas hydrophila, 10 h cultivation at 37° C.): 25 µg/mL; MIC against M. catarrhalis (Moraxella catarrhalis; Moraxella catarrhalis, 10 h cultivation at 37° C.): 25 µg/mL |
| PRT1100 (DIDECASDPCVNGGLCQDLLNKFQCLCDVAFAGERCE; listed as Homo sapiens) | – | 12.5 | – | – | – | – | – | – | – | – | – | 12.5 | 12.5 | 25 | 25 | 12.5 | 25 | 12.5 | 100 | 100 | MIC M. catarrhalis (Moraxella catarrhalis; [2]): 12.5 µg/mL |
| PRT659 (DADECVIFGPGLCPNGRCLNTVPGYVCLCNPGFHYDASHKKCE; listed as Homo sapiens) | – | 25 | – | – | – | – | – | – | – | – | – | – | – | – | – | – | – | – | – | – | MIC P. mirabilis (Proteus mirabilis; 96-well plate, 37° C., 10 h): 12.5 µg/mL; MIC E. cloacae (Enterobacter cloacae; 96-well plate, 37° C., 10 h): 25 µg/mL; MIC K. pneumonia (Klebsiella pneumonia; 96-well plate, 37° C., 10 h): 12.5 µg/mL; MIC P. vulgaris (Proteus vulgaris; 96-well plate, 37° C., 10 h): 25 µg/mL; MIC C. diversus (Citrobacter diversus; 96-well plate, 37° C., 10 h): 25 µg/mL; MIC E. coli BL21 (E. coli BL21; 96-well plate, 37° C., 10 h): 50 µg/mL; MIC S. marcescens (Serratia marcescens; 96-well plate, 37° C., 10 h): 50 µg/mL; MIC P. aeruginosa (Pseudomonas aeruginosa; 96-well plate, 37° C., 10 h): 25 µg/mL; MIC A. hydrophila (Aeromonas hydrophila; 96-well plate, 37° C., 10 h): 50 µg/mL; MIC M. catarrhalis (Moraxella catarrhalis; 96-well plate, 37° C., 10 h): 25 µg/mL |
| PRT1150 (HVPWCAHHLCRNNGTCISDNENLFCECPRLYSGK; listed as Homo sapiens) | – | 12.5 | – | – | – | – | – | – | – | – | – | 25 | 12.5 | 50 | 50 | 25 | 50 | 25 | 12.5 | 50 | MIC M. catarrhalis (Moraxella catarrhalis; [2]): 12.5 µg/mL |
| PRT258 (CSHPDRGGCSENAECVPGSLGTHHCTCHKGWSGDGRVC; listed as Homo sapiens) | 25 | 50 | 50 | 12.5 | 50 | 25 | 12.5 | 25 | 50 | 12.5 | 12.5 | – | – | – | – | – | – | – | – | – | – |
